Source: the NIST ThermoML archive (doi:10.1016/j.tca.2016.06.015)

Experiment: molar heat capacity at constant pressure
Conditions: Liquid, Flow calorimetry

CCCCCCCCCC [decane]
4000 kPa
Conditions	molar heat capacity at constant pressure [J/K/mol]
305.7 K	293.1
316.2 K	305.91
326.5 K	304.48
335.3 K	315.87
344 K	324.4
354.1 K	322.98
366.8 K	327.25
377.6 K	340.05
389.8 K	335.78
401.5 K	344.32
423.6 K	361.4
432.6 K	367.09
443.4 K	372.78
453.9 K	377.05
463.9 K	389.85
475.4 K	396.97
486.6 K	419.73
496 K	414.04
504.1 K	432.54
516.7 K	415.46
528.9 K	424
539.4 K	433.96
551.9 K	453.88
564.4 K	453.88
574.2 K	470.95
584.4 K	488.03
595.2 K	507.95
603.1 K	513.64
608.6 K	486.6
614.1 K	497.99

O [water]
3000 kPa
Conditions	molar heat capacity at constant pressure [J/K/mol]
305.9 K	77.29
315.6 K	72.96
325.4 K	73.14
335.8 K	76.56
345.8 K	74.58
354 K	78.01
366.2 K	74.22
381.2 K	77.65
394.4 K	74.58
407.3 K	76.2
419.9 K	76.38
433.9 K	76.02
